In patent US12226395B2, “Composition for preventing or treating neurodegenerative diseases, containing diterpene-based compound” (KOREA RESEARCH INSTITUTE OF BIOSCIENCE AND BIOTECHNOLOGY, priority 2017, dated 2025):
Where two headings read alike, the source gives them in different places.

Assays:
Assay type in all cases: cell-based
[1] = target: T1, Nurr1 (Homo sapiens, UniProt P43354); assay: Nurr1 activity, luciferase reporter analysis in transfected BE(2)C cells; settings: for Nurr1 activity (luciferase), multiple of 0.1% DMSO control: BE(2)C cells, 20 hours; for Nurr1 activation (in words): no concentration stated
T1 construct: 3 types of plasmid DNA, including DNA containing Nurr1-LBD and DNA with β-galactosidase, were transfected into BE(2)C cells; expressed in transfected cells; host or cells: BE(2)C cells
T1 sequence (P43354 360-595 limits assumed): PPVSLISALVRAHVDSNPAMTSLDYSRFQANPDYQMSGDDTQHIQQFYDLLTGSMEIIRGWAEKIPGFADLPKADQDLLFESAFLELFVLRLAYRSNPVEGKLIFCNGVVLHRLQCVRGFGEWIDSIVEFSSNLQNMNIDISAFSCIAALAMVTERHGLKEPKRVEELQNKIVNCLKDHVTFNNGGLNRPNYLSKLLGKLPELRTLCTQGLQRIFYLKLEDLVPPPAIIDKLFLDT
Source text: As in Example 2, Nurr1 activity according to the concentration of the diterpene isolated from the extract of Daphne genkwa was confirmed through luciferase analysis.
Specifically, after synthesizing a vector in which the gene having the nucleotide sequence (5′-CTCGGAGGACAGTACTCCG-3 SEQ ID NO:1) to which the GLA4 gene can bind is repeated 8 times to the reporter gene, luciferase, is synthesized, 3 types of plasmid DNA, including DNA containing Nurr1-LBD and DNA with β-galactosidase, were transfected into BE(2)C cells. After 6 hours, the compounds 1 to 10 separated in Example 2 were treated according to the concentrations in Table 1 below. The cells thus treated were cultured in a 5% carbon dioxide incubator at 37° C. for 20 hours, and then luciferase analysis was performed. As a control, 0.1% DMSO was used, and at this time, the activity was increased by multiple, and Amodiaquine was used as a positive control.

[2] = test system: nitric oxide production in microglia BV-2 cells; assay: Inhibition of nitric oxide production in LPS-treated microglia BV-2 cells (Griess reagent); settings: for Inhibition of nitric oxide production (in words): microglia BV-2 cells
Source text: The death of cranial nerve cells due to an inflammatory reaction in a microglia cell has been reported as one of the main causes of degenerative brain diseases such as dementia and Parkinson's disease. (Sarkar S et al., Neurotoxicology, 44, 250-262 (2014); Bower J H et al., Neurology, 67, 494-496 (2006)). Accordingly, the inhibition activity on nitric oxide production, a representative inflammatory factor, was investigated for the compounds isolated from Example 2 in a microglia. Specifically, microglia BV-2 cells were put into a 96-well plate at 5×10^4 cells/well, and cultured for 2 days, followed by incubation with LPS ([…]) for 24 hours with the compound isolated in Example 2 above. The culture supernatant was measured for absorbance at 540 nm using the Griess reagent to quantify nitrite to investigate the amount of nitric oxide production. Minocyline was used as a positive control.

[3] = target: T1, Nurr1; assay: Nurr1 activity, luciferase reporter analysis in transfected BE(2)C cells
[4] = BV-2 cells, LPS 24 hours, nitrite by Griess reagent, read-out: IC50, inhibition of nitric oxide production (Table 5)

Compound | Nurr1 activity (luciferase), multiple of 0.1% DMSO control ([1]; High concentration = 1 μM (Table 1)) | Nurr1 activity (luciferase), multiple of 0.1% DMSO control ([1]; Low concentration = 0.01 μM (Table 1)) | Nurr1 activity (luciferase), multiple of 0.1% DMSO control ([1]; Mid concentration = 0.1 μM (Table 1)) | Nurr1 activation (in words) [1] | IC50 ([2]; Mus musculus, BV-2 cells, LPS 24 hours, nitrite by Griess reagent, read-out: IC50, inhibition of nitric oxide production (Table 4)) [nM] | Inhibition of nitric oxide production (in words) [2] | Nurr1 activation (in words) ([3]; 0.01 μM) | IC50 [2, 4] [nM] | Nurr1 activation (in words) ([3]; 0.003 μM) | Nurr1 activity (Table 3), relative to control treatment ([3]; 0.003 μM) | Nurr1 activity (Table 3), relative to control treatment ([3]; 0.01 μM) | Nurr1 activation (in words) ([3]; 0.03 μM) | Nurr1 activity (Table 3), relative to control treatment ([3]; 0.03 μM) | Nurr1 activity (Table 3), relative to control treatment ([3]; 0.1 μM) | Nurr1 activity (Table 3), relative to control treatment ([3]; 0.3 μM) | Nurr1 activity (Table 3), relative to control treatment ([3]; 1 μM) | IC50 ([2]; Mus musculus, BV-2, 24 h, read-out: IC50, inhibition of nitric oxide production (Table 5)) [nM]
C=C(C)[C@@]12O[C@@]3(c4ccccc4)O[C@@H]1C1[C@@H]4O[C@]4(CO)[C@@H](O)[C@]4(O)C(=O)C(C)=CC4[C@@]1(O3)[C@H](C)[C@H]2OC(=O)c1ccccc1 (stereo partly drawn) [Formula 2, (2S,3aR,3cS,4aR,5S,5aS,8bR,9R,10R,10aS)-5,5a-dihydroxy-4a-(hydroxymethyl)-7,9-dimethyl-6-oxo-2-phenyl-10a-(prop-1-en-2-yl)-3a,3b,3c,4a,5,5a,8a,9,10,10a-decahydro-6H-2,8b-epoxyoxireno[2″,3″:6′,7′]azuleno[5′,4′:3,4]benzo[1,2-d][1,3]dioxol-10-yl benzoate] | 1.9 | 2.1 | 2.2 | better effect of increasing Nurr1 activity | 60 ± 20 | superior inhibition activity on nitric oxide production | excellent effect of Nurr1 activity |  |  |  |  |  |  |  |  |  | 
C=C(C)[C@@]12O[C@@]3(/C=C/C=C/CCCCC)O[C@@H]1[C@@H]1[C@@H]4O[C@]4(CO)[C@@H](O)[C@]4(O)C(=O)C(C)=C[C@H]4[C@@]1(O3)[C@H](C)[C@H]2OC(C)=O [compound 13, yuanhuadine] |  |  |  | better effect of increasing Nurr1 activity |  |  |  | 1800 | activated Nurr1 | 1.23 ± 0.09 | 1.35 ± 0.28 | significantly activates Nurr1 | *1.47 ± 0.17 | *1.42 ± 0.14 | *1.65 ± 0.2 | **1.47 ± 0.02 | 
CCC/C=C/C=C/C=C/C(=O)O[C@@H]1[C@@H](C)[C@@]2(O)C(C=C(CO)C[C@]3(O)C(=O)C(C)=CC23)C2C(C)(C)[C@@]21OC(C)=O (stereo partly drawn) [compound 16, (4aR,7bS,8R,9R,9aS)-9a-acetoxy-4a,7b-dihydroxy-3-(hydroxymethyl)-1,1,6,8-tetramethyl-5-oxo-1a,1b,4,4a,5,7a,7b,8,9,9a-decahydro-1H-cyclopropa[3,4]benzo[1,2-e]azulen-9-yl (2E,4E,6E)-deca-2,4,6-trienoate] |  |  |  | better effect of increasing Nurr1 activity |  |  |  |  |  |  |  | significantly activates Nurr1 | *1.42 ± 0.15 | *1.68 ± 0.43 | *1.82 ± 0.51 | **1.53 ± 0.07 | 1780
yuanhuatine [compound 14] |  |  |  | better effect of increasing Nurr1 activity |  | better inhibition activity on nitric oxide production |  | 1030 | activated Nurr1 | 1.03 ± 0.15 | 0.94 ± 0.04 | significantly activates Nurr1 | *1.63 ± 0.18 | **1.68 ± 0.11 | **1.62 ± 0.11 | *1.67 ± 0.32 | 
